46 compounds from the supplement of paper PMC9103864 can be followed below.

For assay [1], the system named is BMSC (primary human bone marrow mesenchymal stromal cells). The assay can be described thus: absolute EC50 for viability; higher = less sensitive.
For assay [2] the test system is unchanged. Nature of the assay: drug sensitivity score (DSS); higher = more sensitive.

On to `Nc1nc(Cl)nc2c1ncn2[C@H]1C[C@H](O)[C@@H](CO)O1` [Cladribine], for which the “absolute EC50 for viability” value in assay [1] was greater than 1000 nM. For the same compound, the drug sensitivity score in assay [2] was determined as 2.3.

For `Nc1nc(Cl)nc2c1ncn2[C@@H]1O[C@H](CO)[C@@H](O)[C@@H]1F` [Clofarabine], the “absolute EC50 for viability” value in assay [1] turned out to be 739 nM. The same compound came in with a drug sensitivity score in assay [2] of 11.4.

As to `CCN(CC)CCOc1ccc(C(=C(Cl)c2ccccc2)c2ccccc2)cc1` [Clomifene], in assay [1], the “absolute EC50 for viability” value is greater than 10000 nM. The drug sensitivity score in assay [2] came out at 0.9.

With `O=C(c1ccc(F)c(F)c1Nc1ccc(I)cc1F)N1CC(O)([C@@H]2CCCCN2)C1` [Cobimetinib], the “absolute EC50 for viability” value in assay [1] was greater than 1000 nM. Moreover, in assay [2], the drug sensitivity score was 4.3.

With `COc1c(OCCCN2CCOCC2)ccc2c3n(c(=NC(=O)c4cnc(N)nc4)nc12)CCN3` [Copanlisib], the “absolute EC50 for viability” value in assay [1] was 126 nM. In assay [2], this compound gave a drug sensitivity score of 13.

Consider `CC1(COc2ccc3c(c2)ncn3-c2ccc3cccc(N4CCC(N)CC4)c3n2)COC1` [Crenolanib], for which the “absolute EC50 for viability” value in assay [1] worked out at 1840 nM. In addition, the drug sensitivity score in assay [2] was determined as 8.5.

In the case of `C[C@@H](Oc1cc(-c2cnn(C3CCNCC3)c2)cnc1N)c1c(Cl)ccc(F)c1Cl` [Crizotinib], in assay [1], the “absolute EC50 for viability” value was greater than 1000 nM. Further, the drug sensitivity score in assay [2] worked out at 0.2.

As for `Nc1ccn([C@@H]2O[C@H](CO)[C@@H](O)[C@@H]2O)c(=O)n1` [Cytarabine], the “absolute EC50 for viability” value in assay [1] was greater than 10000 nM. In addition, the drug sensitivity score in assay [2] was 1.2.

As for `CC(C)(C)c1nc(-c2cccc(NS(=O)(=O)c3c(F)cccc3F)c2F)c(-c2ccnc(N)n2)s1` [Dabrafenib], in assay [1], the “absolute EC50 for viability” value was greater than 2500 nM. For the same compound, the drug sensitivity score in assay [2] amounted to 0.

On to `COc1cc2ncnc(Nc3ccc(F)c(Cl)c3)c2cc1NC(=O)/C=C/CN1CCCCC1` [Dacomitinib], for which the “absolute EC50 for viability” value in assay [1] is greater than 1000 nM. For the same compound, the drug sensitivity score in assay [2] worked out at 2.2.

`Cc1c2oc3c(C)ccc(C(=O)N[C@@H]4C(=O)N[C@H](C(C)C)C(=O)N5CCC[C@H]5C(=O)N(C)CC(=O)N(C)[C@@H](C(C)C)C(=O)O[C@@H]4C)c3nc-2c(C(=O)N[C@@H]2C(=O)N[C@H](C(C)C)C(=O)N3CCC[C@H]3C(=O)N(C)CC(=O)N(C)[C@@H](C(C)C)C(=O)O[C@@H]2C)c(N)c1=O` [Dactinomycin]: the “absolute EC50 for viability” value in assay [1] amounted to 50.7 nM. The compound further displayed a drug sensitivity score in assay [2] of 19.

As for `Cn1c(=O)n(-c2ccc(C(C)(C)C#N)cc2)c2c3cc(-c4cnc5ccccc5c4)ccc3ncc21` [Dactolisib], the “absolute EC50 for viability” value in assay [1] came out at 114 nM. Also, the drug sensitivity score in assay [2] stood at 10.7.

With `CO[C@@H](C(=O)N1Cc2[nH]nc(NC(=O)c3ccc(N4CCN(C)CC4)cc3)c2C1)c1ccccc1` [Danusertib], the “absolute EC50 for viability” value in assay [1] is greater than 10000 nM. This compound displayed a drug sensitivity score in assay [2] of 3.6.

In the case of `O=C(/C=C/c1cccnc1)NCCCCC1CCN(C(=O)c2ccccc2)CC1` [Daporinad], the “absolute EC50 for viability” value in assay [1] was greater than 1000 nM. The drug sensitivity score in assay [2] turned out to be 0.2.

Turning to `CCN(CC)CCN(Cc1ccc(-c2ccc(C(F)(F)F)cc2)cc1)C(=O)Cn1c(SCc2ccc(F)cc2)nc(=O)c2c1CCC2` [Darapladib], in assay [1], the “absolute EC50 for viability” value was greater than 1000 nM. The same compound displayed a drug sensitivity score in assay [2] of 0.

For the compound `Cc1nc(Nc2ncc(C(=O)Nc3c(C)cccc3Cl)s2)cc(N2CCN(CCO)CC2)n1` [Dasatinib], the “absolute EC50 for viability” value in assay [1] is 132 nM. In assay [2], this compound displayed a drug sensitivity score of 9.2.

On to `COc1cccc2c1C(=O)c1c(O)c3c(c(O)c1C2=O)C[C@@](O)(C(C)=O)C[C@@H]3O[C@H]1C[C@H](N)[C@H](O)[C@H](C)O1` [Daunorubicin], for which the “absolute EC50 for viability” value in assay [1] came to 356 nM. The compound also displayed a drug sensitivity score in assay [2] of 5.6.

`CC[C@@](C)(Nc1ccnc(-c2c[nH]c3ncccc23)n1)C(=O)NCC(F)(F)F` [Decernotinib]: in assay [1], the “absolute EC50 for viability” value was greater than 10000 nM. In assay [2], the drug sensitivity score was found to be 0.4.

Turning to `Nc1ncn([C@H]2C[C@H](O)[C@@H](CO)O2)c(=O)n1` [Decitabine], the “absolute EC50 for viability” value in assay [1] was greater than 10000 nM. This compound gave a drug sensitivity score in assay [2] of 0.

Turning to `CC(=O)N(O)CCCCCNC(=O)CCC(=O)N(O)CCCCCNC(=O)CCC(=O)N(O)CCCCCN` [Deferoxamine], in assay [1], the “absolute EC50 for viability” value is greater than 10000 nM. The same compound came in with a drug sensitivity score in assay [2] of 0.

Regarding `C[C@@H]1C[C@H]2[C@@H]3CCC4=CC(=O)C=C[C@]4(C)[C@@]3(F)[C@@H](O)C[C@]2(C)[C@@]1(O)C(=O)CO` [Dexamethasone], the “absolute EC50 for viability” value in assay [1] was greater than 10000 nM. Also, in assay [2], the drug sensitivity score was 0.

Turning to `C[C@H]1O[C@@H](O[C@H]2[C@@H](O)C[C@H](O[C@H]3[C@@H](O)C[C@H](O[C@H]4CC[C@@]5(C)[C@H](CC[C@@H]6[C@@H]5C[C@@H](O)[C@]5(C)[C@@H](C7=CC(=O)OC7)CC[C@]65O)C4)O[C@@H]3C)O[C@@H]2C)C[C@H](O)[C@@H]1O` [Digoxin], in assay [1], the “absolute EC50 for viability” value stood at 52.9 nM. Moreover, the drug sensitivity score in assay [2] is 13.7.

As to `CCc1cnn2c(NCc3ccc[n+]([O-])c3)cc(N3CCCC[C@H]3CCO)nc12` [Dinaciclib], in assay [1], the “absolute EC50 for viability” value was greater than 1000 nM. In assay [2], this compound registered a drug sensitivity score of 8.1.

For `CCN(CC)C(=S)SSC(=S)N(CC)CC` [Disulfiram], the “absolute EC50 for viability” value in assay [1] is greater than 50000 nM. Besides, the drug sensitivity score in assay [2] came to 0.

`CC(=O)O[C@@]12CO[C@@H]1C[C@H](O)[C@@]1(C)C(=O)[C@H](O)C3=C(C)[C@@H](OC(=O)[C@H](O)[C@@H](NC(=O)OC(C)(C)C)c4ccccc4)C[C@@](O)([C@@H](OC(=O)c4ccccc4)[C@H]21)C3(C)C` [Docetaxel]: the “absolute EC50 for viability” value in assay [1] was greater than 1000 nM. For the same compound, in assay [2], the drug sensitivity score is 5.

As for `Cc1ccc(-n2nc(C(C)(C)C)cc2NC(=O)Nc2ccc(OCCN3CCOCC3)c3ccccc23)cc1` [Doramapimod], in assay [1], the “absolute EC50 for viability” value was greater than 10000 nM. Also, the drug sensitivity score in assay [2] was found to be 1.

As to `CN1CCN(c2ccc3nc(-c4c(N)c5c(F)cccc5[nH]c4=O)[nH]c3c2)CC1` [Dovitinib], the “absolute EC50 for viability” value in assay [1] is greater than 10000 nM. In addition, in assay [2], the drug sensitivity score worked out at 0.9.

`COc1cccc2c1C(=O)c1c(O)c3c(c(O)c1C2=O)C[C@@](O)(C(=O)CO)C[C@@H]3O[C@H]1C[C@H](N)[C@H](O)[C@H](C)O1` [Doxorubicin]: the “absolute EC50 for viability” value in assay [1] was 219 nM. The compound also came in with a drug sensitivity score in assay [2] of 6.8.

For the compound `C[C@H](Nc1ncnc2nc[nH]c12)c1cc2cccc(Cl)c2c(=O)n1-c1ccccc1` [Duvelisib], in assay [1], the “absolute EC50 for viability” value was greater than 500 nM. In addition, the drug sensitivity score in assay [2] was found to be 0.6.

Take `Cc1ccc(NS(=O)(=O)c2cccc(C#N)c2)c2[nH]cc(C#N)c12` [E7820]: the “absolute EC50 for viability” value in assay [1] was greater than 50000 nM. Besides, in assay [2], the drug sensitivity score stood at 0.

In the case of `Cc1cc(Nc2cc(N3CCN(C)CC3)nc(/C=C/c3ccccc3)n2)n[nH]1` [ENMD-2076], the “absolute EC50 for viability” value in assay [1] was determined as 897 nM. In addition, the drug sensitivity score in assay [2] stood at 11.5.

`Cc1cc(C)c(CNC(=O)c2cc(-c3ccc(CN4CCOCC4)cc3)cc3c2cnn3C2CCCC2)c(=O)[nH]1` [EPZ-5687]: in assay [1], the “absolute EC50 for viability” value worked out at 9930 nM. For the same compound, in assay [2], the drug sensitivity score worked out at 0.

As to `NC(=O)/C(=C/n1cnc(-c2cc(C(F)(F)F)cc(C(F)(F)F)c2)n1)c1cncnc1` [Eltanexor], the “absolute EC50 for viability” value in assay [1] is greater than 10000 nM. The same compound came in with a drug sensitivity score in assay [2] of 9.6.

Take `CC(C)(O)CNc1nc(Nc2ccnc(C(F)(F)F)c2)nc(-c2cccc(C(F)(F)F)n2)n1` [Enasidenib]: the “absolute EC50 for viability” value in assay [1] was greater than 10000 nM. Further, the drug sensitivity score in assay [2] worked out at 0.

Regarding `COC(=O)N[C@@H](C)CNc1nccc(-c2cn(C(C)C)nc2-c2cc(Cl)cc(NS(C)(=O)=O)c2F)n1` [Encorafenib], in assay [1], the “absolute EC50 for viability” value is greater than 1000 nM. Moreover, the drug sensitivity score in assay [2] was 0.

In the case of `Nc1ccccc1NC(=O)c1ccc(CNC(=O)OCc2cccnc2)cc1` [Entinostat], in assay [1], the “absolute EC50 for viability” value was greater than 10000 nM. The compound further yielded a drug sensitivity score in assay [2] of 3.5.

For the compound `c1cn2cc(-c3ccc4cn[nH]c4c3)nc(Nc3ccc(N4CCOCC4)cc3)c2n1` [Entospletinib], in assay [1], the “absolute EC50 for viability” value is greater than 5000 nM. The compound further displayed a drug sensitivity score in assay [2] of 0.

Take `CN1CCN(c2ccc(C(=O)Nc3n[nH]c4ccc(Cc5cc(F)cc(F)c5)cc34)c(NC3CCOCC3)c2)CC1` [Entrectinib]: in assay [1], the “absolute EC50 for viability” value is greater than 1000 nM. The compound also registered a drug sensitivity score in assay [2] of 0.8.

In the case of `CNC(=O)c1ccc(N2C(=S)N(c3ccc(C#N)c(C(F)(F)F)c3)C(=O)C2(C)C)cc1F` [Enzalutamide], the “absolute EC50 for viability” value in assay [1] was greater than 10000 nM. The compound also returned a drug sensitivity score in assay [2] of 0.

For the compound `Cn1cc(C2=C(c3cn(C4CCN(Cc5ccccn5)CC4)c4ccccc34)C(=O)NC2=O)c2ccccc21` [Enzastaurin], the “absolute EC50 for viability” value in assay [1] was greater than 10000 nM. For the same compound, the drug sensitivity score in assay [2] was determined as 0.

On to `NS(=O)(=O)NCCNc1nonc1/C(=N/O)Nc1ccc(F)c(Br)c1` [Epacadostat], for which, in assay [1], the “absolute EC50 for viability” value was greater than 10000 nM. In assay [2], the drug sensitivity score was found to be 0.

Regarding `COc1cccc2c1C(=O)c1c(O)c3c(c(O)c1C2=O)C[C@@](O)(C(=O)CO)C[C@@H]3O[C@H]1C[C@H](N)[C@@H](O)[C@H](C)O1` [Epirubicin], the “absolute EC50 for viability” value in assay [1] was 249 nM. Also, the drug sensitivity score in assay [2] is 6.4.

With `CCOc1ccccc1-n1c(C(C)N2CCN(C(=O)COc3ccc(Cl)cc3)CC2)nc2ccccc2c1=O` (configuration not stated) [Erastin], the “absolute EC50 for viability” value in assay [1] is greater than 10000 nM. Moreover, in assay [2], the drug sensitivity score turned out to be 2.1.

On to `COc1cc(OC)cc(N(CCNC(C)C)c2ccc3ncc(-c4cnn(C)c4)nc3c2)c1` [Erdafitinib], for which the “absolute EC50 for viability” value in assay [1] was greater than 1000 nM. In addition, the drug sensitivity score in assay [2] stood at 2.2.

With `C=C1C[C@@H]2CC[C@@]34C[C@H]5O[C@H]6[C@@H](O3)[C@H]3O[C@H](CC[C@@H]3O[C@H]6[C@H]5O4)CC(=O)C[C@@H]3[C@@H](OC)[C@@H](C[C@H](O)CN)O[C@H]3C[C@H]3O[C@@H](CC[C@@H]1O2)C[C@@H](C)C3=C` [Eribulin], in assay [1], the “absolute EC50 for viability” value is greater than 1000 nM. The drug sensitivity score in assay [2] was determined as 12.

For `C#Cc1cccc(Nc2ncnc3cc(OCCOC)c(OCCOC)cc23)c1` [Erlotinib], the “absolute EC50 for viability” value in assay [1] was greater than 10000 nM. This compound yielded a drug sensitivity score in assay [2] of 1.5.
